Experimental data taken from patent US12435091B2, “RNA-binding protein multimerization inhibitors and methods of use thereof” (THE UAB RESEARCH FOUNDATION, priority 2020, dated 2025).
Where two headings read alike, the source gives them in different places.

Key:
[1] = test system: PDGx neurosphere cell lines (JX12p, X14P, XD456, X1524, and JX22p); test: RNA-Seq analysis and gene ontology enrichment across all PDGx neurosphere cell lines; type: cell-based; conditions: 3 uM for 12 hours, in four of five neurosphere cell lines
Method: Illumina global RNA-sequencing data were generated by utilizing PDGx neurospheres, which have been treated with a compound as described herein (e.g., SRI-42127, 3 uM) for 12 hours or with vehicle as the control. RNA was isolated by using TRIzol reagent (Invitrogen; Carlsbad, CA). The RNA samples were processed.
The RNA-Sequencing data was generated using glioma neurospheres representing the different molecular subtypes (classical, neuronal, and mesenchymal) in the control (treatment with vehicle) and after treatment with SRI-42127, 3 uM for 12 hours. First, analysis of direct HuR mRNA targets and their corresponding cell signaling pathways was performed by using gene sets, which have been defined as the direct HuR targets following tumor neurosphere treatment with DHTS compound, an established modulator of the HuR/mRNA interaction.
Significant down-regulation of the pathways responsible for i) cell cycle progression, ii) DNA replication, iii) transport mature transcript to cytoplasm, iv) DNA strand elongation, v) capped intron-containing pre-mRNA processing, vi) DNA repair, vii) unwinding of DNA, viii) alpha-linolenic (omega 3) and linoleic (omega 6) metabolism, ix) chromosome maintenance, x) messenger RNA splicing was observed. It is established that HuR can control the centrosome and microtubule organizing center in cancer cells. […]

[2] = test system: U251 cells expressing Fluc construct; test: control Fluc (full length luciferase) reporter assay in U251 cells; type: cell-based
Procedure, shortened: (§1)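 U251 cells carrying HuR fused to N- or C-terminal split firefly luciferase halves (dimer reporter) or full-length Fluc (control); constructs induced with doxycycline 0.75 ug/ml for 48 h. Compounds at various concentrations vs vehicle for 6 h. Luciferin-driven luminescence read; mean+SD.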

[3] = test system: secreted inflammatory factors of microglia; test: ELISA of secreted factors in culture medium of LPS-activated microglia; type: cell-based, mouse
Method: Major chemokines CXCL1, CXCL2 and CCL3 were suppressed by more than 2-fold. There was a mixed effect on markers of M2-like markers, with TGF-β1 and YM1 increasing and IL-10 decreasing. As these inflammatory factors were secreted, they were quantified by ELISA in culture medium. The greatest effect was with IL-6 which was suppressed at a lower dose of SRI-42127 (1.7-fold at 0.1 μM) and nearly 10-fold at 1.0 μM. IL-1β and TNF-α were suppressed by 5-fold at 1.0 μM.

TRKA (NTRK1) = TRKA (NTRK1) (Homo sapiens, UniProt P04629); test: SelectScreen kinase profiling, ZLYTE; type: biochemical
Method: (§2) The kinase inhibitory potentials of compounds as described herein (e.g., SRI-42127 and SRI-41664) were evaluated by ThermoFisher Scientific's SelectScreen™ Kinase Profiling Service. The following kinase inhibitory assays were utilized: ZLYTE (Madison, WI) for NTRK1, PIM1, and cMET kinases; LanthaScreen Binding (Madison, WI) for AAK1 kinase; and Adapta (Madison, WI) for IRAK1 kinase.

cMET = cMET (Homo sapiens, UniProt P08581); test: SelectScreen kinase profiling, ZLYTE; type: biochemical
Method: as §2

PIM1 = PIM1 (Homo sapiens, UniProt P11309); test: SelectScreen kinase profiling, ZLYTE; type: biochemical
Method: as §2

[4] = test system: secreted proteins of astrocytes; test: ELISA of secreted proteins in culture media of LPS-stimulated astrocytes; type: cell-based
Method: Next, the impact of SRI-42127 on induction of inflammatory cytokine mRNAs as depicted in FIG. 15, Panel B was assessed. A significant 3-4-fold suppression of mRNA for IL-1β, IL-6, CXCL1, and CCL2 was observed. […] All chemokines were likewise suppressed, including KC, CCL2, CCL3, CCL4, CXCL10, from 2.5 to 8.1-fold.

HuR = molecular target: T1, HuR (Homo sapiens, UniProt Q15717); test: cell-based split firefly luciferase-HuR dimerization assay
T1 construct: expressed in transfected cells; host or cells: U251 glioma cells, doxycycline-inducible constructs
Procedure, shortened: as §1

T1 sequence (Q15717 whole entry): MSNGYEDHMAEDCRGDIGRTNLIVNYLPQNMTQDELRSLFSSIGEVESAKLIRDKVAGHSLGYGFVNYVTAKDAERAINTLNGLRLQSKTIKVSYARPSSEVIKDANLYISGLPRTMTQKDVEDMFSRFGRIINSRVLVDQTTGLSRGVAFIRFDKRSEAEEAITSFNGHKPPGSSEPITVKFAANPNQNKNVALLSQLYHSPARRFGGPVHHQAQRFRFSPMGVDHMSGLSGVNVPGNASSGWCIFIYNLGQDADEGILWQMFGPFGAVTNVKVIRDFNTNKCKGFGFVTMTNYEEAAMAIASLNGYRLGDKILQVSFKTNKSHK
cMET, sequence (P08581 25-1390): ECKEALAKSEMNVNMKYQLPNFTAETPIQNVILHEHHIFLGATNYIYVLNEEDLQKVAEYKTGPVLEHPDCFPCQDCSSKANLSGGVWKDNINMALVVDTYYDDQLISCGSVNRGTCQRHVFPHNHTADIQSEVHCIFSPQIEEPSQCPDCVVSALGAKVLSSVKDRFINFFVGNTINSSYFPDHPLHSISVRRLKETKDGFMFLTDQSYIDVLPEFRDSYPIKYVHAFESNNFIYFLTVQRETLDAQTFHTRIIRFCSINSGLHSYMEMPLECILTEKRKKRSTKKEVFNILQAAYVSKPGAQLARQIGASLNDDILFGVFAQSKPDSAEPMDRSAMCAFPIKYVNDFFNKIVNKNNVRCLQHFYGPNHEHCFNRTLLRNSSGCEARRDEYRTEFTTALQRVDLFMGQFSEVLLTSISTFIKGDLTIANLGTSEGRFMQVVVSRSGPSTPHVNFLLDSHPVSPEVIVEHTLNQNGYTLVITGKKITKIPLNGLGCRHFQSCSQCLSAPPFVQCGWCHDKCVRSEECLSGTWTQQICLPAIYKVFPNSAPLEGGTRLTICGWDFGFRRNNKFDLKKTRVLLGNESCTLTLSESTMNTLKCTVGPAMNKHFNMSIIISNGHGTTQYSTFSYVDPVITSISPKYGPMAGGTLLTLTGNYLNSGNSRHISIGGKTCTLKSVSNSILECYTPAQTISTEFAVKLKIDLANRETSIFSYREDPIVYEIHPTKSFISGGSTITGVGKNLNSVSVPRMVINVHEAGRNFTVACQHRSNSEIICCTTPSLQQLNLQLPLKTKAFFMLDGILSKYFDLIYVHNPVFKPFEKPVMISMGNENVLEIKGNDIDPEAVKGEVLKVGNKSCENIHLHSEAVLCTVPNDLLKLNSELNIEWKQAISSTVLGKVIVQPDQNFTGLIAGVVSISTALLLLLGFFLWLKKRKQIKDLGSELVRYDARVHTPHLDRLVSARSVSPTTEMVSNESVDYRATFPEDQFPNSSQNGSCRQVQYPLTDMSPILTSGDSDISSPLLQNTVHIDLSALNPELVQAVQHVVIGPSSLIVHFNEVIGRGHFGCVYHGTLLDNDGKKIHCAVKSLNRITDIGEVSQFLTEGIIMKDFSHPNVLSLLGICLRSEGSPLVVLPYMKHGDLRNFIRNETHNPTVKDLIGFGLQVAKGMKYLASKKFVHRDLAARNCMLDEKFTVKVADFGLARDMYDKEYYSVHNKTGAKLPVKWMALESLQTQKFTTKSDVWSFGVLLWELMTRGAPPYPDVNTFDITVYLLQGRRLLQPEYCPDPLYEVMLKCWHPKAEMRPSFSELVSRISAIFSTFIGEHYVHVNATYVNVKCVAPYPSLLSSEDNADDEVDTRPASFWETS
PIM1, sequence (P11309 whole entry): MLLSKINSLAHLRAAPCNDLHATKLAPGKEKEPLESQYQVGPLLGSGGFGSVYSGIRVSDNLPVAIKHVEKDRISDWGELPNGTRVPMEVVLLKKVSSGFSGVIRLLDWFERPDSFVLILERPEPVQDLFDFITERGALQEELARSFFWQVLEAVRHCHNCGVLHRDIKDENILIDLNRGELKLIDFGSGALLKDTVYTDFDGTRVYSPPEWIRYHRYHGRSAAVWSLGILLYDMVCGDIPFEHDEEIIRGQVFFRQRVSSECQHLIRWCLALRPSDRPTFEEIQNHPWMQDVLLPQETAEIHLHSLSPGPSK
TRKA (NTRK1), sequence (P04629 33-796): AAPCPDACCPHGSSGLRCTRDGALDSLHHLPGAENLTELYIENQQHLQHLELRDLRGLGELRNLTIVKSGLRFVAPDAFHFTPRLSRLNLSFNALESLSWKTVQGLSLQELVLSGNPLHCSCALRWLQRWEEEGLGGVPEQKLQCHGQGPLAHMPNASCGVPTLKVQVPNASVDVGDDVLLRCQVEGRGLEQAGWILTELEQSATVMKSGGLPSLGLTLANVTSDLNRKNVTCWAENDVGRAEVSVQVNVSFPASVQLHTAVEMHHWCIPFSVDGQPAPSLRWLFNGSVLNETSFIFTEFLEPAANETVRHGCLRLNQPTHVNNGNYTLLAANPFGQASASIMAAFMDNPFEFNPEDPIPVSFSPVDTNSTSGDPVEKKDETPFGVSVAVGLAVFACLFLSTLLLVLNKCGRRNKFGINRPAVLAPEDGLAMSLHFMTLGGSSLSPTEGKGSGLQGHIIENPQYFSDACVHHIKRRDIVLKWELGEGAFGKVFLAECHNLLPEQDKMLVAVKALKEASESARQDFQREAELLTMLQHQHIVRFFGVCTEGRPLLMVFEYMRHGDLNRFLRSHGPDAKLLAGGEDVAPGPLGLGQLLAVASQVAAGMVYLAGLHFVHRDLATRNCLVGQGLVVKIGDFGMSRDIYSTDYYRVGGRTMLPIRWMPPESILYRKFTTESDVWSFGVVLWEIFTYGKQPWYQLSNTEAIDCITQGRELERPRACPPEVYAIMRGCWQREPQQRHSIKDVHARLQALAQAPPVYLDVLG

Compound: CN(c1ccc2ncc(-c3ccc4cn[nH]c4c3)n2n1)C1CCOCC1 [Compound 19]
- up-regulation of Tubb2A transcript [1]: more than 2 folds
- decrease of luminescence signal from cells overexpressing the control Fluc construct ([2]; 6 hours, represents the cytotoxic effect): 26±9%
- inhibition at 50 µM ([2]; Homo sapiens, U-251, 6 h, Concn 50 uM, read-out: Fluc Imax % Inh): 26%
- suppression of secreted IL-6 ([3]; 0.1 μM): 1.7 fold
- suppression of secreted IL-1β ([3]; 1.0 μM): 5 fold
- suppression of secreted IL-6 ([3]; 1.0 μM): ~10 fold
- suppression of secreted TNF-α ([3]; 1.0 μM): 5 fold
- IC50 (TRKA (NTRK1)): 117 nM
- IC50 (cMET): > 10000 nM
- IC50 (PIM1): 668 nM
- suppression of secreted chemokines KC, CCL2, CCL3, CCL4, CXCL10 [4]: 2.5 to 8.1 fold
- suppression of secreted IL-6 ([4]; 1.0 μM): 8.8 fold
- suppression of secreted TNF-α ([4]; 1.0 μM): 5.7 fold
- HuR inhibition activity (in words) (HuR): active
- HuR N/C Imax % Inh (HuR; Concn 50 uM): 90%
- IC50 (HuR; U251 cells co-expressing HuR-Nluc and HuR-Cluc, 6 hours of treatment, read-out: HuR IC50): 1200 ± 200 nM
- IC50 (HuR; U251 with dox-inducible HuR-dimerization reporters, after increase in HuR dimerization by two fold, 6 hours, read-out: IC50 for inhibition of HuR dimerization): 1900 ± 100 nM
- IC50 (HuR; U251 with dox-inducible HuR-dimerization reporters, before increase in HuR dimerization, 6 hours, read-out: IC50 for inhibition of HuR dimerization): 1200 ± 100 nM
- maximum inhibition of HuR dimerization (HuR; after 6 hours of cell treatment): 90±1%
- IC50 (HuR; split luciferase HuR dimerization assay, compounds administered for 6 hours, read-out: HuR IC50): 1500 nM
